Test results as given in US9127027B2, “Epoxyeicosatrienoic acid analogs and methods of making and using the same” (The Medical College of Wisconsin, Inc., priority 2011, dated 2015).
Like-named read-outs stand apart in the source and are kept apart here.

Assays:
bovine coronary artery = assay: Vasorelaxant activity in bovine coronary artery rings precontracted with U-46619; type: cell-based; conditions: for Vascular Relax. % (10 μM): 100% relaxation = basal pre-U-46619 tension; for EC50: Bos taurus
Procedure: Vasorelaxant activity was measured in bovine coronary artery. Bovine hearts were obtained and the left anterior descending coronary artery was dissected and cleaned of connective tissue. Vessels of 1 mm diameter were cut into rings of 3 mm width as previously described (3, 27, 39). […] The vessels were suspended from a pair of stainless steel hooks in a 6-ml water-jacketed organ chamber. […] One hook was anchored to a steel rod and the other hook to a force transducer (model FT-03C; Grass Instruments, West Warwick, R.I.). Tension of the vessel was measured by an ETH-400 bridge amplifier, and the data were acquired with a MacLab 8e analog-to-digital converter and MacLab software version 3.5.6 (AD Instruments, Milford, Mass.) and stored on a Macintosh computer for subsequent data analysis.
Basal tension was set at the length-tension maximum of 3.5 g and equilibrated for 1.5 h. KCl (40 mM) was added to the chamber until reproducible maximal contractions were maintained. […] Cumulative additions of compounds were added to the chamber. Between concentration-response curves, the chambers were rinsed with fresh Krebs buffer, 40 mM KCl was administered to determine the maximum contraction, and the vessels were rinsed. Consecutive concentration-response curves were performed with 14,15-EET followed by a concentration-response curve to a compound. The experiment was always repeated with the order of the agonists reversed. […] The relaxation was plotted versus compound concentration and the EC50 determined utilizing statistical software.

[1] = test system: Spontaneously Hypertensive Rats (SHR); assay: Telemetry blood pressure and heart rate in spontaneously hypertensive rats; type: in vivo, rat; conditions: for blood pressure after two weeks of treatment: 2 mg/d i.p. osmotic pump, vehicle 141±3.0; for heart rate: 2 mg/d i.p., vehicle 331±17.0
Description: (§1) Telemetry Blood Pressure Measurement. To accurately detect changes in blood pressure and heart rate, telemetry transmitters (Data Sciences Inc., St. Paul, Minn.) were implanted in rats one week prior to the experimental period according to manufacturer's specifications while under pentobarbital anesthesia. In brief, an incision was made to expose the femoral artery that was occluded to allow insertion of the transmitter catheter. The catheter was secured in place with tissue glue and the transmitter body was sutured in place and the incision line was closed. Rats were allowed to recover from surgery and were returned to individual housing. A baseline arterial pressure was recorded for prior to the experimental period. Mean arterial pressure was continuously recorded throughout the experimental period.
Telemetry transmitters were implanted into male SHR as described. After the surgical recovery period, baseline mean arterial pressure was recorded. In this series of experiments, EET analogs were administered by osmotic pump (2 mg/d, i.p.) and blood pressure was continuously monitored.

[2] = test system: angiotensin II induced hypertensive rats; assay: Angiotensin II hypertension: telemetry blood pressure, heart rate, sodium and protein excretion; type: in vivo, rat; conditions: Ang II hypertension
Description: as §1
Telemetry transmitters were implanted into male Sprague-Dawley rats (225-275 g) as described. After recording basal blood pressure, osmotic pumps were implanted (s.c.) to deliver angiotensin at a dose of 60 ng/min. EET analogs were administered by an osmotic pump (2 mg/d, i.p.) and blood pressure was continuously monitored.
Animals were placed in a metabolic cage and urine was collected in a conical tube. Samples were stored at −80° C. until assayed. Urinary protein excretion was assessed as an index for renal injury. Protein was determined by the Bradford colorimetric method and creatinine was determined by the picric acid colorimetric method.

Human recombinant sEH = Human recombinant sEH (Homo sapiens (Human), UniProt P34913); assay: Soluble epoxide hydrolase inhibition (PHOME fluorescent substrate); type: biochemical
Procedure: Compounds were tested for their ability to inhibit recombinant soluble epoxide hydrolase (sEH) protein. The assay utilizes (3-Phhenyl-oxiranyl)-acetic acid cyano-(6-methoxy-naphthalen-2-yl)-methyl ester (PHOME), a sensitive substrate for sEH that can be used to monitor the activity of both human and murine enzymes. […] Human recombinant sEH was incubated with substrate and compounds ranging in concentration from 0.1 to 1000 nM.

[3] = Table 2, read-out: Vascular relaxation EC50
[4] = bovine coronary artery, read-out: Vascular Relax. EC50
[5] = Table 1 head prints μM (Table 2 prints nM for same numbers), read-out: sEHi IC50
[6] = Table 2, read-out: SEHi activity IC50

Sequence of Human recombinant sEH (P34913 whole entry): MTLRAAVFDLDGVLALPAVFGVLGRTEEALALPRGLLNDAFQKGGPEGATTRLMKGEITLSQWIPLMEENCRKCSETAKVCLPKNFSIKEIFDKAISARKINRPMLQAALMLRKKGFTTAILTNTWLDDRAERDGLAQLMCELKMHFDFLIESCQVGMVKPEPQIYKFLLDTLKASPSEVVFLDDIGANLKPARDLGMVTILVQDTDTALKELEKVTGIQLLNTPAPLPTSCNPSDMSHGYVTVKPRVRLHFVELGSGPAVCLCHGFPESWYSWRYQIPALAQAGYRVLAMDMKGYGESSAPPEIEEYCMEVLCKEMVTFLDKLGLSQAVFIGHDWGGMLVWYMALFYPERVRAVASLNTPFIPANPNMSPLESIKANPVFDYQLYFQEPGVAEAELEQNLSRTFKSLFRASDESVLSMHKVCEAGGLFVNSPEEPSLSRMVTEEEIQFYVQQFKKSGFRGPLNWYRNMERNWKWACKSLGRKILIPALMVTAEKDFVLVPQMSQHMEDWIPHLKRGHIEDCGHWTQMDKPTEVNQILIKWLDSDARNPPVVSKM

EC50 (bovine coronary artery; [3]) [µM]	EC50 (bovine coronary artery; [4]) [µM]	IC50 (Human recombinant sEH; [5]) [µM]	IC50 (Human recombinant sEH; [6]) [µM]	Structure (SMILES)	Vascular Relax. % (10 μM) (bovine coronary artery) [%]	Vascular relaxation % relaxation (10 μM) (bovine coronary artery; Table 2) [%]	blood pressure after two weeks of treatment [1] [mmHg]	heart rate [1] [BPM]	blood pressure at end of two-week treatment ([2]; 2 mg/d i.p., vehicle 150±3.2) [mmHg]	heart rate ([2]; two weeks, vehicle 396±25.0) [BPM]
1.6	1.6	–	–	CCCCCNC(=O)NCCCC/C=C\CCCCCCC(=O)N[C@@H](CC(=O)O)C(=O)O (stereo in doubt) [Compound 7, (S)-2-(13-(3-n-Pentylureido)tridec-8(Z)-enamido)succinic acid]	91	91	131±2.0	316±23.0	135±5.0	410±25.0
0.18	0.18	0.011	0.011	CCCCCNC(=O)NCCCC/C=C\CCCCCCc1nnn[nH]1 [Compound 20]	119	119	137±1.0	–	–	–
0.32	0.32	> 0.5	> 0.5	CCCCCCC(=O)N(CCCC/C=C\CCCCCCC1=NOS(=O)N1)C(C)C (centres unmarked) [Compound 26]	109	109	150±5.0	344±23.0	–	–
